# “Also recorded” adds a separate entry of the source. Like-named read-outs stand apart in the source and are kept apart here.
# Key:
# [1] = tested on: Eμ-myc lymphoma cells overexpressing Bcl-xL; test: Eμ-myc lymphoma cell killing; format: cell-based, mice; conditions: FIG. 9
# Source text: (§1) The specificity and selectivity of this class Mcl-1 inhibitors was further confirmed by using cell lines developed by retroviral transduction of lymphoma cells isolated from Eμ-myc transgenic mice which survival depends on the expression of individual prosurvival protein (see, e.g., Whitecross K F, Alsop A E, Cluse L A, Wiegmans A, Banks K M, et al. 2009. […].
# [2] = tested on: Eμ-myc lymphoma cells overexpressing Bcl-2; test: Eμ-myc lymphoma cell killing; format: cell-based, mice; conditions: FIG. 9
# Source text: as §1
# [3] = target: T1, Mcl-1 (Homo sapiens (Human), UniProt Q07820); conditions: cited from earlier work
# [4] = target: T1, Mcl-1; conditions: for did not bind to Mcl-1 up to: highest concentration tested
# [5] = target: Bcl-2 (Homo sapiens, UniProt P10415); test: Fluorescence polarization-based competitive binding assay (FAM-BID tracer)
# Sequence of Bcl-2 (P10415 whole entry, looked up): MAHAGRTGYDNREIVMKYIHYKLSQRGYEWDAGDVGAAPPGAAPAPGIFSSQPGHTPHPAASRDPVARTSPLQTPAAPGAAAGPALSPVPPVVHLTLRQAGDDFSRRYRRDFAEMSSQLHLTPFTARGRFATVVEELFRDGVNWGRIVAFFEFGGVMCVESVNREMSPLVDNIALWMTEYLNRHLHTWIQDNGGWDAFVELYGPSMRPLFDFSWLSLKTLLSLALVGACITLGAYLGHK
# [6] = target: Bcl-xL (Homo sapiens (Human), UniProt Q07817, DEL45-85); test: as above; conditions: for Ki: Table 2, tested up to 20 μM, read-out: Bcl-XL Ki ± SD
# Sequence of Bcl-xL (Q07817 with tags, fused parts or gaps DEL45-85): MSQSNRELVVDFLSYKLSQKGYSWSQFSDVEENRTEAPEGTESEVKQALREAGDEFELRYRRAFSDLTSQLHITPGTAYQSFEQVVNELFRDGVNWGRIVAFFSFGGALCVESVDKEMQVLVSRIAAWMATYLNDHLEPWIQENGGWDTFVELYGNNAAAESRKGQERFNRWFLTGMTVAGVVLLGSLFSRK
# [7] = tested on: Eμ-myc lymphomas overexpressing Mcl-1; test: Eμ-myc lymphoma cell killing; format: cell-based, mice; conditions: FIG. 9
# Source text: as §1
# [8] = read-out: Bcl-2 Ki ± SD; Table 2; tested up to 20 μM
# [9] = Table 2; tested up to 20 μM; read-out: Bcl-2 Ki ± SD
structure (smiles),measurement,setting,value
"CC1(C)CCC(c2ccc(Cl)cc2)=C(CN2CCN(c3ccc(C(=O)NS(=O)(=O)c4ccc(N[C@H](CCN5CCOCC5)CSc5ccccc5)c(S(=O)(=O)C(F)(F)F)c4)cc3)CC2)C1 [ABT-263, reference compound]",effect on Eμ-myc lymphoma cells dependent on Bcl-xL,[1],kills
same,effect on Eμ-myc lymphoma cells dependent on Bcl-2,[2],kills
CN(C)CC[C@H](CSc1ccccc1)Nc1ccc(S(=O)(=O)NC(=O)c2ccc(N3CCN(Cc4ccccc4-c4ccc(Cl)cc4)CC3)cc2)cc1[N+](=O)[O-] [ABT-737],binding to Mcl-1,[3],fails to bind
"Cc1nn(C)c2nc(-c3ccco3)cc(C(=O)O)c12 [Compound 3, 6-(Furan-2-yl)-1,3-dimethyl-1H-pyrazolo[3,4-b]pyridine-4-carboxylic acid]",did not bind to Mcl-1 up to,[4],> 200 µM
"Cc1cc(C(=O)O)c2c(C)nn(C)c2n1 [Compound 5, 1,3,6-Trimethyl-1H-pyrazolo[3,4-b]pyridine-4-carboxylic acid]",did not bind to Mcl-1 up to,[4],> 200 µM
"Cc1nn(Cc2ccccc2)c2nc(-c3ccco3)cc(C(=O)O)c12 [Compound 6, 1-Benzyl-6-(furan-2-yl)-3-methyl-1H-pyrazolo[3,4-b]pyridine-4-carboxylic acid]",change in potency compared to 2,[4]; vs compound 2,slight increase in potency
"Cc1nn(Cc2ccc(Oc3ccccc3)cc2)c2nc(-c3ccco3)cc(C(=O)O)c12 [Compound 8, 6-(Furan-2-yl)-3-methyl-1-(4-phenoxybenzyl)-1H-pyrazolo[3,4-b]pyridine-4-carboxylic acid]",Ki,[5]; [8],> 4 µM
"Cc1nn(Cc2ccc(Oc3ccccc3)cc2)c2nc(/C=C/c3ccccc3)cc(C(=O)O)c12 [Compound 16, (E)-3-methyl-1-(4-phenoxybenzyl)-6-styryl-1H-pyrazolo[3,4-b]pyridine-4-carboxylic acid]",Ki,[6],3.55 ± 0.3 µM
same,Ki,[5]; [8],3.16 ± 1.03 µM
Cc1cc(Oc2ccc(Cn3nc(C)c4c(C(=O)O)cc(-c5ccco5)nc43)cc2)cc(C)c1Cl [Compound 57],Ki,[6],> 5 µM
same,no binding to Bcl-xL up to,[6]; highest concentration tested,> 20 µM
same,effect on Eμ-myc lymphoma cells dependent on Bcl-xL,[1],did not show effect; also recorded: not affected
same,effect on Eμ-myc lymphoma cells dependent on Bcl-2,[2],did not show effect; also recorded: not affected
same,effect on Eμ-myc lymphoma cells dependent on Mcl-1,[7],led to sensitization; also recorded: selective killing
same,Ki,[5]; [9],1.95 ± 0.2 µM
Cc1nn(Cc2ccc(Oc3cccc4ccccc34)cc2)c2nc(-c3ccco3)cc(C(=O)O)c12 [Compound 58],Ki,[6],> 5 µM
same,Ki,[5]; [9],> 4 µM
